{"source": "paper PMC6479099", "about": "“Aminoguanidines: New leads for treatment of Giardia duodenalis infection” (International Journal for Parasitology: Drugs and Drug …, 2019)", "key": {"[1]": {"tested_on": "Giardia BAH2c2 trophozoites", "assay": "Electron microscopy (TEM, SEM) of trophozoites", "type": "cell-based, Giardia duodenalis", "method": "To determine any effects robenidine has on the ultrastructure of Giardia trophozoites, transmission electron microscopy (TEM) was performed. Giardia BAH2c2 trophozoites were exposed to 3 X IC50 of robenidine or metronidazole for 1 h and placed on ice for 40 min to detach trophozoites then washed twice with PBS (900×g, 10 min 4 °C) and fixed with a combination of glutaraldehyde and formaldehyde overnight. Cells were washed with PBS +4% sucrose before fixation with osmium tetroxide for 1 h. Samples were dehydrated through a graded ethanol series (70–100%) followed by suspension in propylene oxide for ten minutes. Samples were centrifuged and suspended in 1:1 mixture of propylene oxide and epoxy resin for an hour before centrifugation. Following overnight suspension in 100% epoxy resin samples were resuspended in fresh resin and polymerized at 70 °C for 24 h. After sectioning samples were stained with uranyl acetate and lead citrate. Sections were imaged with a FEI tecnai G2 Spirit Transmission Electron microscope (Adelaide Microscopy, University of Adelaide).\nTo determine the effect that robenidine and metronidazole has on the cell surface of the Giardia trophozoites, scanning electron microscopy (SEM) was performed as follows. Giardia BAH2c2 trophozoites were prepared as for TEM, however they were exposed to compounds for 2 or 4 h. […]"}, "[2]": {"tested_on": "G. duodenalis trophozoites", "assay": "Giardia recovery assay", "type": "cell-based, Giardia duodenalis", "settings": "5 h at 5x the IC50, counts at 24 and 48 h post exposure", "method": "G. duodenalis trophozoites were harvested on ice as outlined above and 5 × 10^5 cells/mL were added to 1.5 mL centrifuge tubes. […] After exposure cells were collected by placing tubes on ice for 40 min followed by centrifugation at 900×g for 5 min. The supernatant was removed and cells were resuspended in 8 mL of fresh media (in a 9 mL culture tube). The number of trophozoites was counted using a haemocytometer and cells were incubated for 48 h with cell numbers being determined at 24 and 48 h.\nFig. 7 Recovery assay of Giardia duodenalis exposed to robenidine and metronidazole. Giardia trophozoites were exposed to robenidine or metronidazole for 5 h at 5x the IC50. Key: closed circle – growth control, triangle – metronidazole, square – robenidine, open circle – NCL 062, diamond – NCL 099. Cell numbers were determined at 24 and 48 h post exposure. Error ± SD."}, "bacteria": {"tested_on": "bacteria", "assay": "Off-target antibacterial effects", "type": "cell-based"}, "[3]": {"tested_on": "Giardia duodenalis BAH2c2 strain, assemblage A", "assay": "Resazurin reduction assay, assemblage A isolate", "type": "cell-based", "settings": "BAH2c2, 24 h; for IC50: resazurin metabolic assay, read-out: IC50, Assemblage A", "method": "G. duodenalis (BAH2c2 and BAH12 strain) was cultivated according to the method of Clark and Diamond in Keister's modified TYI-S-33 medium, supplemented with heat inactivated foetal bovine serum (Hyclone™, Thermo Fisher Scientific, Scoresby, Victoria, Australia) at 37 °C in plastic 9 mL screw-capped test tubes (nunc, Thermo Fisher Scientific, Scoresby, Victoria, Australia). Subcultures were performed once a confluent monolayer was observed, approximately 2–3 times per week ([Clark and Diamond, 2002]).\nThe in-vitro compound efficacy was determined using a resazurin reduction assay as previously described ([Benere et al., 2007]). The media of confluent cultures was replaced with fresh media and the cultures were placed on ice for 40 min to detach trophozoites. Trophozoites were enumerated using a haemocytometer and 50 000 trophozoites were added to each test well of a 96 well plate. Doubling or tripling dilutions of the test compounds were added to wells beginning at 25 or 50 μM compound concentration (previously prepared in DMSO). Metronidazole and DMSO (vehicle only) were used as controls. Plates were incubated under anaerobic conditions, using anaerobic gas generating sachets, (AnaeroGen, Thermo Fisher Scientific, Scoresby, Victoria, Australia) for 24 h at 37 °C. After incubation the media was removed and replaced with an equal volume of warm PBS. Resazurin (Alamarblue, Thermo Fisher Scientific, Scoresby, Victoria, Australia) was then added at 10% of the total volume of the wells. Plates were further incubated (1.5 h) for colour development and absorbance read at 570 nm and 630 nm. The percentage resazurin reduction was then calculated using the following formula:((εoxi630 x A570) – (εoxi570 x A630))/((εred570 x C630)-([…])) x 100Where: εoxi630 = 34798, εoxi570 = 80586, A570 = absorbance at 570 nm, A630 = absorbance at 630 nm, εred570 = 155677, εred630 = 5494, C630 = absorbance of negative control well at 630 nm and C570 = absorbance of negative control well at 570 nm.\nFor the resazurin reduction assay the mean and standard error of the mean were determined with each assay completed in triplicate. The IC50 was calculated using the log (inhibitor) vs. normalised response – variable slope function in Graphpad Prism. For the adherence assay mean and standard error of the mean were calculated and data analysed using an unpaired t-test, relative to untreated control.\nThe IC50 of each compound was determined using a resazurin reduction assay, which measures the metabolic activity of cells, using the log (inhibitor) vs. normalised response – variable slope function in Graphpad Prism. The compounds were tested against an assemblage A (BAH2c2, 24 h) and an assemblage B (BAH12, 24 h) isolate (Table 1). […] The effect of the compounds on the proliferation of Giardia trophozoites (BAH2c2) was also determined.\nAbsorbance was measured (630 and 570 nm), percent reduction of resazurin calculated and data presented as a percentage of the growth control. Treatment groups are: square - metronidazole; triangle –NCL 099; diamond - robenidine; and circle - NCL 062. Error ± SEM, n = 3. Data represents a typical experiment. Note the break in the x-axis indicates a change in the scale of drug concentration."}}, "note": "Like-named read-outs stand apart in the source and are kept apart here."}
{"smiles": "N=C(N/N=C/c1ccc(Cl)cc1)N/N=C/c1ccc(Cl)cc1", "note": "[Robenidine, robenidine]", "values": [{"measurement": "Ultrastructural changes by TEM", "setting": "[1]; 3 x IC50, 1 h exposure", "result": "extreme membrane blebbing"}, {"measurement": "Cell surface changes by SEM", "setting": "[1]; 3 x IC50, 2 h exposure", "result": "extreme membrane blebbing"}, {"measurement": "Recovery of trophozoites after short-term exposure", "setting": "[2]", "result": "unable to recover"}, {"measurement": "Off-target antibacterial effects", "setting": "bacteria", "result": "off-target antibacterial effects"}, {"measurement": "IC50", "setting": "[3]", "result": "2.9 ± 2.9", "unit": "µM"}, {"measurement": "MLC (minimum lethal concentration), Assemblage A", "setting": "[3]; concentration at which no metabolism of resazurin was observed", "result": "2.8 to 8.3", "unit": "µM"}, {"measurement": "IC50", "setting": "[3]; Giardia duodenalis, 24 h", "result": 2, "unit": "µM"}]}
